The subject of this data set is OCI-Ly10 DLBCL cells. Briefly: OCI-Ly10 human tumor xenograft model. The class given is in vivo. Here is the method:
. A total of 10×10^6 OCI-Ly10 DLBCL cells in 100% Matrigel (Becton Dickinson, San Jose, Calif.) were injected subcutaneously into the right flank of mice. Mice were monitored 2 or 3 times a week for the appearance of tumors. Once the tumors reached an average size of 100-150 mg, 10 mice in each group were treated with either vehicle (0.5% carboxymethyl cellulose: 0.25% Tween 80 in deionized H2O) or indicated doses of lenalidomide (qd×28, p.o.) or the positive control vincristine (q4d×4, i.v.). Mice were monitored daily for health status as well as tumor growth. Tumors of all mice were measured with a digital caliper and volumes calculated with the following formula: tumor volume (mm^3)=length (mm)×width (mm)^2. Mice were killed when tumor size exceeded 1000 mm^3.
To confirm the relevance of lenalidomide-mediated inhibition of NF-κB/IRF4 signaling in vivo in ABC-DLBCL, a subcutaneous OCI-Ly10 xenograft model was established. […] Compared with vehicle control group, lenalidomide treatment for 7 days reduced IRF4 expression and BCL-10 cleavage by 15-35% (p<0.05).
A general note: In xenograft studies the graft and the host belong to different species.

Turning to `Nc1cccc2c1CN(C1CCC(=O)NC1=O)C2=O` (stereo not drawn) [lenalidomide, 3-(4-amino-1-oxo-1,3-dihydro-isoindol-2-yl)-piperidine-2,6-dione], under “3-30 mg/kg po, qdX28, p<0.01”, the tumor size entry was “significantly decreased tumor size”. For the same molecule, under “throughout study”, the “toxicity based upon mouse weight” value was “No pronounced toxicity”. In addition, the “reduction of IRF4 expression and BCL-10 cleavage compared with vehicle control group” value (treatment for 7 days, p<0.05) is listed as 15-35%.

The values above are taken from patent publication US10047151B2, “Methods for the treatment of cancer and inflammatory diseases using cereblon as a predictor” (Celgene Corporation, priority 2011, dated 2018).
